{"source": "patent US20220202783A1", "about": "“Use Of ADAM9 Inhibitor As Immunomodulator” (China Medical University, priority 2019, published 2022)", "type_in_all_cases": "cell-based", "key": {"[1]": {"assay": "cytotoxicity assay in HNOF cells", "parameters": "key to effect of inhibiting tumor cell growth: “+” represents that the compound has the effect of inhibiting tumor cell growth", "conditions": "human, HNOF cells"}, "[2]": {"tested_on": "HNOF", "assay": "cytotoxicity assay in HNOF cells", "parameters": "key to effect of inhibiting tumor cell growth: “+” represents that the compound has the effect of inhibiting tumor cell growth", "conditions": "HNOF"}, "[3]": {"tested_on": "lung cancer cells (Bm7brmx2)", "assay": "cytotoxicity assay in Bm7brmx2 cells", "parameters": "key to effect of inhibiting tumor cell growth: “+” represents that the compound has the effect of inhibiting tumor cell growth", "method": "(§1) Please refer to FIG. 1A, FIG. 1B and Table 2, which show the analysis results of the compound of Formula (I) inhibiting ADAM9 activity. In FIG. 1A, Bm7 lung cancer cells were treated with the derivatives of the compound 6X-0310, and then cultured under anchorage-free culture condition. The expressions of ADAM9 and CDCP1 in Bm7 lung cancer cells were detected by Western blot, in which EF1α is an internal control, and mock represents Bm7 lung cancer cells without treatment. […] In the experiment, the compounds of Formula (I) of Example 1 to Example 32 were further performed cytotoxicity assay to measure the IC50 value of the compounds of Formula (I) of the present disclosure in lung cancer cell lines."}, "[4]": {"tested_on": "lung cancer cells (Bm7brmx2-2nd)", "assay": "cytotoxicity assay in Bm7brmx2-2nd cells", "parameters": "key to effect of inhibiting tumor cell growth: “+” represents that the compound has the effect of inhibiting tumor cell growth", "method": "as §1"}, "[5]": {"tested_on": "lung cancer cells (Bm7brmx2-1st)", "assay": "cytotoxicity assay in Bm7brmx2-1st cells", "parameters": "key to effect of inhibiting tumor cell growth: “+” represents that the compound has the effect of inhibiting tumor cell growth", "method": "as §1"}, "[6]": {"tested_on": "lung cancer cells (A549)", "assay": "cytotoxicity assay in A549 cells", "parameters": "key to effect of inhibiting tumor cell growth: “+” represents that the compound has the effect of inhibiting tumor cell growth", "method": "as §1"}, "[7]": {"tested_on": "lung cancer cells (TC1)", "assay": "cytotoxicity assay in TC1 cells", "parameters": "key to effect of inhibiting tumor cell growth: “+” represents that the compound has the effect of inhibiting tumor cell growth", "method": "as §1"}, "[8]": {"assay": "cytotoxicity assay in 293 cells", "parameters": "key to effect of inhibiting tumor cell growth: “+” represents that the compound has the effect of inhibiting tumor cell growth", "conditions": "293"}, "[9]": {"tested_on": "kidney cancer cells (293)", "assay": "cytotoxicity assay in 293 cells", "parameters": "key to effect of inhibiting tumor cell growth: “+” represents that the compound has the effect of inhibiting tumor cell growth", "conditions": "Homo sapiens, HEK293"}, "[10]": {"tested_on": "lung cancer cells (H1299)", "assay": "cytotoxicity assay in H1299 cells", "parameters": "key to effect of inhibiting tumor cell growth: “+” represents that the compound has the effect of inhibiting tumor cell growth", "method": "as §1"}, "[11]": {"tested_on": "Bm7 lung cancer cells", "assay": "cytotoxicity assay, FIG. 1B and Table 2 summary", "method": "as §1"}, "[12]": {"tested_on": "CDCP1 in Bm7 lung cancer cells", "assay": "Western blot of ADAM9 and CDCP1 expression in Bm7 cells", "conditions": "anchorage-free culture", "method": "as §1"}}}
{"smiles": "COc1ccc(OC)c(/C=N/Nc2nc(CCN3C(=O)c4ccccc4C3=O)cs2)c1", "note": "[2X-0295]", "values": [{"measurement": "IC50", "setting": "[1]", "result": 78.4, "unit": "µM"}, {"measurement": "effect of inhibiting tumor cell growth", "setting": "[2]", "result": "+"}, {"measurement": "IC50", "setting": "[3]", "result": 75.2, "unit": "µM"}, {"measurement": "effect of inhibiting tumor cell growth", "setting": "[3]", "result": "+"}, {"measurement": "IC50", "setting": "[4]", "result": 267, "unit": "µM"}, {"measurement": "effect of inhibiting tumor cell growth", "setting": "[4]", "result": "+"}, {"measurement": "IC50", "setting": "[5]", "result": 53.2, "unit": "µM"}, {"measurement": "effect of inhibiting tumor cell growth", "setting": "[5]", "result": "+"}, {"measurement": "effect of inhibiting tumor cell growth", "setting": "[6]", "result": "+"}, {"measurement": "IC50", "setting": "[6]; Homo sapiens", "result": 1020, "unit": "µM"}, {"measurement": "effect of inhibiting tumor cell growth", "setting": "[7]", "result": "+"}, {"measurement": "IC50", "setting": "[7]; TC-1", "result": 79, "unit": "µM"}, {"measurement": "effect of inhibiting tumor cell growth", "setting": "[8]", "result": "+"}, {"measurement": "IC50", "setting": "[9]", "result": 77.4, "unit": "µM"}, {"measurement": "effect of inhibiting tumor cell growth", "setting": "[10]; H1299", "result": "+"}, {"measurement": "IC50", "setting": "[10]; Homo sapiens, NCI-H1299", "result": 72, "unit": "µM"}, {"measurement": "tumor cell cytotoxicity compared with the core structure compound 6X-0310", "setting": "[11]", "result": "stronger tumor cell cytotoxicity"}, {"measurement": "expression of CDCP1", "setting": "[12]", "result": "reduce the expression of CDCP1"}]}
